Results taken from ChEMBL document CHEMBL6071195, “Oxime Linked Doxorubicin Glycoconjugates Improve the Specific Targeting of Glioblastoma in High-Grade Glioma Therapy” (ACS Med Chem Lett, 2024).
Active and inactive are the calls of the source. The calls are words filed in the database; no cut-off is given here.

Experiments:
DNA [1] = assay: Binding affinity to DNA (unknown origin) assessed as intercalative binding constant (Ka) by UV-Vis absorption spectra; type: nucleic-acid assay
DNA [2] = assay: Binding affinity to DNA (unknown origin) assessed as Stem-Volmer quenching constant by fluorescence spectral analysis; type: nucleic-acid assay
T98G [3] = assay: Cytotoxicity against human T98G cells assessed as cell viability at 10 uM incubated for 24 hrs by MTT assay relative to control; type: functional
A 172 [4] = assay: Cytotoxicity against human A-172 cells assessed as reduction in cell viability at 10 uM incubated for 24 to 48 hrs by MTT assay; type: functional, cell-based; details: time 24-48 hrs
[5] = Cytotoxicity against human SVG p12 cells assessed as reduction in cell viability at 10 uM incubated for 24 to 48 hrs by MTT assay; type: toxicity, cell-based; details: svg p12, 10 µM, time 24-48 hrs
A 172 [6] = assay: Induction of DNA damage in human A-172 cells at 10 uM incubated for 24 hrs by TUNEL assay; type: functional, cell-based
A 172 [7] = assay: Induction of apoptosis in human A-172 cells assessed as apoptotic rate at 10 uM incubated for 24 hrs by TUNEL assay relative to control; type: functional
T98G [8] = assay: Induction of DNA damage in human T98G cells at 10 uM incubated for 24 hrs by TUNEL assay; type: functional, cell-based
T98G [9] = assay: Induction of apoptosis in human T98G cells assessed as apoptotic rate at 10 uM incubated for 24 hrs by TUNEL assay relative to control; type: functional
A 172 [10] = assay: Cytotoxicity against human A-172 cells co-cultured with MDCK-II cells transfected with human P-gp assessed as cell viability at 100 uM pretreated for 2 hrs followed by […] cell removal and measured after 48 hrs by MTT assay relative to control; type: functional; details: time 50 hrs, read-out: Activity
[11] = Cytotoxicity against human T98G cells co-cultured with MDCK-II cells transfected with human P-gp assessed as cell viability at 100 uM pretreated for 2 hrs followed by […] cell removal and measured after 48 hrs by MTT assay relative to control; type: functional; details: time 50 hrs, read-out: Activity
A 172 [12] = assay: Cytotoxicity against human A-172 cells assessed as reduction in cell viability at 10 uM glucose deprived for 8 hrs followed by compound addition and measured after 24 to 48 hrs by MTT assay relative to control; type: functional, cell-based; details: time 24-48 hrs
T98G [13] = assay: Cytotoxicity against human T98G cells assessed as reduction in cell viability at 10 uM glucose deprived for 8 hrs followed by compound addition and measured after 24 hrs by MTT assay relative to control; type: functional, cell-based
T98G [14] = assay: Cytotoxicity against human T98G cells assessed as reduction in cell viability at 10 uM glucose deprived for 8 hrs followed by compound addition and measured after 48 hrs by MTT assay relative to control; type: functional, cell-based
[15] = Drug uptake in human A-172 cells at 10 uM incubated for 8 hrs by DAPI staining based immunofluorescence analysis; type: ADME, cell-based; details: a 172, 8 h
[16] = Drug uptake in human T98G cells at 10 uM incubated for 8 hrs by DAPI staining based immunofluorescence analysis; type: ADME, cell-based
[17] = Drug uptake in human SVG p12 cells at 10 uM incubated for 8 hrs by DAPI staining based immunofluorescence analysis; type: ADME, cell-based; details: svg p12, 8 h
[18] = Stability of compound at pH 5.0 incubated for 72 hrs by HPLC analysis; type: physicochemical; details: buffer, pH 5, 72 h
[19] = Stability of compound at pH 7.4 incubated for 72 hrs by HPLC analysis; type: physicochemical; details: buffer, pH 7.4, 72 h
[20] = Stability of compound at pH 3.5 incubated for 72 hrs by HPLC analysis; type: physicochemical; details: buffer, pH 3.5, 72 h
[21] = Stability of compound at pH 2 measured after 24 hrs by HPLC analysis; type: physicochemical; details: buffer, pH 2, 24 h
[22] = Stability of compound at pH 2 assessed as drug hydrolysis measured after 72 hrs by HPLC analysis; type: physicochemical; details: buffer, read-out: Drug degradation
[23] = Stability of compound in T98G GBM cell culture media at pH 6.8 measured after 72 hrs by HPLC analysis; type: physicochemical; details: pH 6.8, 72 h
DNA [24] = assay: Binding affinity to DNA (unknown origin) assessed as intercalation by measuring hypsochromic shift at 100 uM by UV-Vis absorption spectra; type: nucleic-acid assay
[25] = Drug uptake in human A-172 cells assessed as red appearance incubated for 24 hrs by imaging analysis; type: ADME, cell-based; details: a 172, 24 h
[26] = Drug uptake in human T98G cells assessed as red appearance incubated for 24 hrs by imaging analysis; type: ADME, cell-based
T98G [27] = assay: Cytotoxicity against human T98G cells assessed as reduction in cell viability at 10 uM incubated for 48 hrs by MTT assay; type: functional, cell-based

Row | K (DNA [1]) | KSV (DNA [2]) | Drug uptake [15] | Drug uptake [16] | Drug uptake [17] | Stability [18] | Stability [19] | Stability [20] | Stability [21] | SMILES | Activity (A 172 [4]) | Activity [5] | Activity (A 172 [6]) | Activity (A 172 [7]) [%] | Activity (T98G [8]) | Activity (T98G [9]) | viability at 100 µM (A 172 [10]) [%] | viability at 100 µM [11] [%] | Activity (A 172 [12]) | Activity (T98G [13]) | Activity (T98G [14]) | further results
1 | 3.3 10^5/M | 3.1 10^5/M | Active | Active | Active | – | – | – | – | COc1cccc2c1C(=O)c1c(O)c3c(c(O)c1C2=O)C[C@@](O)(C(=O)CO)C[C@@H]3O[C@H]1C[C@H](N)[C@H](O)[C@H](C)O1 [DOXORUBICIN] | Active | Toxic | Active | 102 | Active | 122% | 94 | 73 | Active | inactive | Active | Activity (T98G [3]): inactive
2 | 3.5 10^5/M | 4.4 10^5/M | Not Active | Not Active | Not Active | Stable | Stable | Stable | Unstable | COc1cccc2c1C(=O)c1c(O)c3c(c(O)c1C2=O)C[C@@](O)(/C(CO)=N\OCC(=O)NC[C@H]1O[C@H](OC)[C@H](O)[C@@H](O)[C@@H]1O)C[C@@H]3O[C@H]1C[C@H](N)[C@H](O)[C@H](C)O1 | Active | – | – | 32 | inactive | inactive | 129 | 76 | Active | inactive | inactive | degraded at 72 h [22]: 46%; Stability [23]: Stable; Activity (DNA [24]): Active; Drug uptake [25]: Not Active; Drug uptake [26]: Not Active
3 | 2.7 10^5/M | 3.5 10^5/M | Active | Active | Active | Stable | Stable | Stable | Unstable | COc1cccc2c1C(=O)c1c(O)c3c(c(O)c1C2=O)C[C@@](O)(/C(CO)=N\OCC(=O)NCc1cn(C[C@H]2O[C@H](OC)[C@H](O)[C@@H](O)[C@@H]2O)nn1)C[C@@H]3O[C@H]1C[C@H](N)[C@H](O)[C@H](C)O1 | Active | Non-Toxic | Active | 202 | Active | 116% | 58 | 62 | Active | inactive | Active | degraded at 72 h [22]: 49%; Stability [23]: Stable; Activity (DNA [24]): Active; viability at 10 µM (T98G [3]; read-out: Activity): 80%; Activity (T98G [27]): Active; Drug uptake [25]: Active; Drug uptake [26]: Active
